This is an account of results in patent US20230382926A1, “COMPOUNDS AND USES THEREOF” (The University of The West Indies, priority 2022, published 2023).

The test system of assay [1] is Carbapenem resistant Acinetobacter baumannii. Nature of the assay: Broth microdilution minimum inhibitory concentration. The format is cell-based. The conditions noted are these: compound alone. Here is the method:
(§1) Antibacterial activity of the synthesized compounds was determined following guidelines established by the Clinical and Laboratory Standards Institute M07-A10 (CLSI 2015), following the broth microdilution method. Briefly, the test articles were dissolved in 100% DMSO, diluted by 2-fold serial titrations in the same vehicle (100% DMSO), for a total of 11 concentrations. A 4 μL aliquot of each dilution was then added to 196 μL of broth medium seeded with the bacterial suspension in wells of a 96 well plate (bacterial count: 2×10^5 to 8×10^5 colony forming units/mL final). The highest test substance concentration was 1028 μg/mL, and the final vehicle concentration was 2 percent. Following incubation, the test plate was visually examined, and each well was scored for growth or complete inhibition of growth. The minimum inhibitory concentration was determined as the lowest concentration were no growth of the bacterial was observed. Each test article was assayed in duplicate.

For assay [2], the system named is Carbapenem resistant Klebsiella pneumoniae. The assay is described as above. The following applies: compound alone. The format is cell-based. Here is the method:
as §1

In assay [3] the test system is Methicillin resistant Staphylococcus aureus. The assay is described as above. The following applies: compound alone. The format is cell-based. As for the experimental part: as §1
For assay [4], the system named is Multidrug resistant Pseudomonas aeruginosa. Described as above. The format is cell-based. The following applies: compound alone. Here is the method: as §1
Assay [5] has as its system Vancomycin resistant Enterococcus faecalis. The assay is described as above. The following applies: compound alone. The format is cell-based. Here is the method:
as §1

For the next assay, the system named is MRSA. Nature of the assay: Rescue concentration of substituted phenyl azaindole derivatives. The following applies: Amoxicillin fixed at 2 μg/mL. The format is cell-based, Staphylococcus aureus. Here is the method:
(§2) The antibiotic adjuvant activity of the SPazaBIMs were evaluated in combination with representative antibiotics (representing 13 antibiotic classes) against the 19 pathogens strains listed in Table 3. To assess the adjuvant properties of the SP-azaBIM molecules, a modified checkerboard minimum inhibitory concentration assay was used. A fixed concentration of the respective antibiotic (susceptible breakpoint concentration) was mixed with a twofold dilution series of the test SP-azaBIM (FIG. 1). This was to determine the concentration of SP-azaBIM needed potentiate the antibiotic at a clinically susceptible breakpoint concentration. Antibiotic susceptible breakpoint concentrations for the respective bacteria were determined using Clinical Laboratory Standards Institute (CLSI) criteria M100 ED31.
(§3) In this study, only those antibiotics to which the bacterial was classed as resistant were included in the adjuvant assays. In this assay we recorded the rescue concentration of the SP-BIM for a respective antibiotic. The rescue concentration was defined as the concentration of the adjuvant that reduces the minimum inhibitory concentration (MIC) of an antibiotic to the susceptibility breakpoint.
(§4) Immediately prior to testing, the respective antibiotic and SP-azaBIM was dissolved in sterile deionised water at 20× the required test concentration. Each microtiter well was then inoculated with 180 μl of bacterial inoculum of 10^6 CFU/ml in ca-MHB, and 10 μl each if the antibiotic and SP-azaBIM was added to the plates. These plates were then incubated at 35° C. for 24 h under aerobic conditions. A similar method was followed for the fastidious pathogens except that they were cultured in ca-MHB with 5% sheep blood and 5% CO2.
(§5) Bacterial growth was visually inspected after the incubation period and the rescue concentration of the test SP-azaBIM was determined as the lowest concentration of the compound needed to reduce bacterial growth by 99.99% at the susceptible breakpoint concentration of the antibiotic. For example, CLSI states that Pseudomonas aeruginosa is susceptible to the Imipenem if the MIC is ≤2 μg mL^−1. If the bacteria can tolerate this concentration in vitro, then the bacteria has an intermediate or absolute resistance toward that antibiotic. The goal was to determine the concentration of SP-azaBIM needed to cause P. aeruginosa death at 2 μg mL^−1 of Imipenem therefore restoring susceptibility of the bacteria to toward the antibiotic.
(§6) Phenyl azaindole compounds are also tested for their adjuvant activities and the method is shown in Example 39.

In the next assay the test system is K. pneumoniae. Described as above. The format is cell-based. The following applies: for Rescue concentration, K. pneumoniae Ciprofloxacin (1 μg/mL): Ciprofloxacin fixed at 1 μg/mL; for Rescue concentration, K. pneumoniae Imipenem (1 μg/mL): Imipenem fixed at 1 μg/mL. Here is the method:
as §2, §3, §4, §5, §6

Another assay deals with P. aeruginosa. The description is as above. The format is cell-based. The following applies: Imipenem fixed at 1 μg/mL. Here is the method: as §2, §3, §4
Bacterial growth was visually inspected after the incubation period and the rescue concentration of the test SP-azaBIM was determined as the lowest concentration of the compound needed to reduce bacterial growth by 99.99% at the susceptible breakpoint concentration of the antibiotic. […] If the bacteria can tolerate this concentration in vitro, then the bacteria has an intermediate or absolute resistance toward that antibiotic. […]
as §6

Each structure is given as a SMILES string.

With `OC(c1cccc(Br)c1)c1c[nH]c2cnccc12` (stereo not drawn) [Compound 3Br-6aza-OH, (3-bromophenyl)(1H-pyrrolo[2,3-c]pyridin-3-yl)methanol], the minimal inhibitory concentration (MIC) in assay [1], in assay [2], in assay [3], in assay [4] and in assay [5] was less than 1020 µg/mL throughout. For the same compound, the “Rescue concentration, MRSA Amoxicillin (2 μg/mL)” value (from here on “Rescue concentration … (2 μg/mL)”) in the assay with MRSA worked out at 1 µg/mL. The “Rescue concentration, K. pneumoniae Ciprofloxacin (1 μg/mL)” value in the assay on K. pneumoniae came out at 4 µg/mL. Moreover, the “Rescue concentration, K. pneumoniae Imipenem (1 μg/mL)” value in the assay with K. pneumoniae is 4 µg/mL. In addition, the “Rescue concentration, P. aeruginosa Imipenem (1 μg/mL)” value with P. aeruginosa amounted to 32 µg/mL.
For `Nc1ccc(C(O)c2c[nH]c3cnccc23)cc1` (stereo not drawn) [Compound 4NH2-6aza-OH, (4-aminophenyl)(1H-pyrrolo[2,3-c]pyridin-3-yl)methanol], the minimal inhibitory concentration (MIC) in assay [1], in assay [2], in assay [3], in assay [4] and in assay [5] was less than 1020 µg/mL throughout. For the same compound, the “Rescue concentration … (2 μg/mL)” value in the assay with MRSA was determined as 8 µg/mL. In addition, the “Rescue concentration, K. pneumoniae Ciprofloxacin (1 μg/mL)” value with K. pneumoniae was 64 µg/mL. In addition, the “Rescue concentration, K. pneumoniae Imipenem (1 μg/mL)” value in the assay on K. pneumoniae worked out at 16 µg/mL. In the assay with P. aeruginosa, the “Rescue concentration, P. aeruginosa Imipenem (1 μg/mL)” value amounted to 128 µg/mL.
For the compound `O=[N+]([O-])c1cccc(C(O)c2c[nH]c3ncc(F)cc23)c1` (stereo not drawn) [3NO2-5Fl-7aza-OH, (5-fluoro-1H-pyrrolo[2,3-b]pyridin-3-yl)(3-nitrophenyl)methanol], the MIC in assay [1], in assay [2], in assay [3], in assay [4] and in assay [5] was less than 1020 µg/mL each time. The “Rescue concentration … (2 μg/mL)” value with MRSA turned out to be 128 µg/mL. Moreover, in the assay with K. pneumoniae, the “Rescue concentration, K. pneumoniae Ciprofloxacin (1 μg/mL)” value was less than 256 µg/mL. Further, the “Rescue concentration, K. pneumoniae Imipenem (1 μg/mL)” value in the assay on K. pneumoniae is less than 256 µg/mL. Besides, in the assay with P. aeruginosa, the “Rescue concentration, P. aeruginosa Imipenem (1 μg/mL)” value is less than 256 µg/mL.
In the case of `O=[N+]([O-])c1ccc(C(O)c2c[nH]c3cnccc23)cc1` (stereo not drawn) [Compound 4NO2-6aza-OH, (4-nitrophenyl)(1H-pyrrolo[2,3-c]pyridin-3-yl)methanol], the minimal inhibitory concentration (MIC) in assay [1], in assay [2], in assay [3], in assay [4] and in assay [5] was less than 1020 µg/mL in each case. Also, in the assay on MRSA, the “Rescue concentration … (2 μg/mL)” value is 128 µg/mL. Also, the “Rescue concentration, K. pneumoniae Ciprofloxacin (1 μg/mL)” value in the assay with K. pneumoniae amounted to 128 µg/mL. Further, the “Rescue concentration, K. pneumoniae Imipenem (1 μg/mL)” value in the assay on K. pneumoniae was determined as 128 µg/mL. Besides, the “Rescue concentration, P. aeruginosa Imipenem (1 μg/mL)” value in the assay on P. aeruginosa is less than 256 µg/mL.
As to `OC(c1ccc(Br)cc1)c1c[nH]c2cnc(Br)cc12` (stereo not drawn) [4Br-5Br-6aza-OH, (5-bromo-1H-pyrrolo[2,3-c]pyridin-3-yl)(4-bromophenyl)methanol], the MIC in assay [1], in assay [2], in assay [3], in assay [4] and in assay [5] was less than 1020 µg/mL in each case. The “Rescue concentration … (2 μg/mL)” value in the assay with MRSA is 4 µg/mL. Further, in the assay with K. pneumoniae, the “Rescue concentration, K. pneumoniae Ciprofloxacin (1 μg/mL)” value was less than 256 µg/mL. Besides, the “Rescue concentration, K. pneumoniae Imipenem (1 μg/mL)” value in the assay on K. pneumoniae is less than 256 µg/mL. Also, the “Rescue concentration, P. aeruginosa Imipenem (1 μg/mL)” value in the assay on P. aeruginosa is less than 256 µg/mL.
Take `O=[N+]([O-])c1cccc(C(O)c2c[nH]c3c(Cl)nccc23)c1` (stereo not drawn) [3NO2-7Cl-6aza, (7-chloro-1H-pyrrolo[2,3-c]pyridin-3-yl)(3-nitrophenyl)methanol]: the MIC in assay [1], in assay [2], in assay [3], in assay [4] and in assay [5] was less than 1020 µg/mL each time. For the same compound, the “Rescue concentration … (2 μg/mL)” value in the assay with MRSA turned out to be 32 µg/mL. For the same compound, the “Rescue concentration, K. pneumoniae Ciprofloxacin (1 μg/mL)” value in the assay on K. pneumoniae was less than 256 µg/mL. Further, the “Rescue concentration, K. pneumoniae Imipenem (1 μg/mL)” value in the assay with K. pneumoniae was less than 256 µg/mL. Also, the “Rescue concentration, P. aeruginosa Imipenem (1 μg/mL)” value in the assay on P. aeruginosa was less than 256 µg/mL.
Turning to `O=[N+]([O-])c1cccc(C(O)c2c[nH]c3cnccc23)c1` (stereo not drawn) [Compound 3NO2-6aza-OH, (3-nitrophenyl)(1H-pyrrolo[2,3-c]pyridin-3-yl)methanol], the minimal inhibitory concentration (MIC) in assay [1], in assay [2], in assay [3], in assay [4] and in assay [5] was less than 1020 µg/mL in each case. Also, the “Rescue concentration … (2 μg/mL)” value in the assay on MRSA turned out to be 64 µg/mL. In addition, in the assay on K. pneumoniae, the “Rescue concentration, K. pneumoniae Ciprofloxacin (1 μg/mL)” value is 128 µg/mL. Besides, in the assay with K. pneumoniae, the “Rescue concentration, K. pneumoniae Imipenem (1 μg/mL)” value stood at 256 µg/mL. Also, the “Rescue concentration, P. aeruginosa Imipenem (1 μg/mL)” value with P. aeruginosa is less than 256 µg/mL.
For `O=[N+]([O-])c1cccc(C(O)c2c[nH]c3ncccc23)c1` (stereo not drawn) [Compound 3NO2-7aza-OH, (3-nitrophenyl)(1H-pyrrolo[2,3-b]pyridin-3-yl)methanol], the MIC in assay [1], in assay [2], in assay [3], in assay [4] and in assay [5] was less than 1020 µg/mL in each case. The “Rescue concentration … (2 μg/mL)” value in the assay on MRSA is less than 256 µg/mL. Also, the “Rescue concentration, K. pneumoniae Ciprofloxacin (1 μg/mL)” value in the assay on K. pneumoniae was less than 256 µg/mL. Moreover, the “Rescue concentration, K. pneumoniae Imipenem (1 μg/mL)” value with K. pneumoniae was less than 256 µg/mL. Moreover, the “Rescue concentration, P. aeruginosa Imipenem (1 μg/mL)” value in the assay on P. aeruginosa was less than 256 µg/mL.
For the compound `O=[N+]([O-])c1ccccc1C(O)c1c[nH]c2cnccc12` (stereo not drawn) [Compound 2NO2-6aza-OH, (2-nitrophenyl)(1H-pyrrolo[2,3-c]pyridin-3-yl)methanol], the MIC in assay [1], in assay [2], in assay [3], in assay [4] and in assay [5] was less than 1020 µg/mL in each case. Also, the “Rescue concentration … (2 μg/mL)” value in the assay on MRSA turned out to be 256 µg/mL. Further, in the assay on K. pneumoniae, the “Rescue concentration, K. pneumoniae Ciprofloxacin (1 μg/mL)” value is 256 µg/mL. The “Rescue concentration, K. pneumoniae Imipenem (1 μg/mL)” value in the assay with K. pneumoniae was 128 µg/mL. Also, the “Rescue concentration, P. aeruginosa Imipenem (1 μg/mL)” value in the assay on P. aeruginosa is less than 256 µg/mL.
As for `O=[N+]([O-])c1ccc(C(O)c2c[nH]c3cnc(Cl)cc23)cc1` (stereo not drawn) [4NO2-5Cl-6aza-OH, (5-chloro-1H-pyrrolo[2,3-c]pyridin-3-yl)(4-nitrophenyl)methanol], the MIC in assay [1], in assay [2], in assay [3], in assay [4] and in assay [5] was less than 1020 µg/mL each time. For the same compound, in the assay on MRSA, the “Rescue concentration … (2 μg/mL)” value was less than 256 µg/mL. Also, the “Rescue concentration, K. pneumoniae Ciprofloxacin (1 μg/mL)” value in the assay with K. pneumoniae was less than 256 µg/mL. Besides, the “Rescue concentration, K. pneumoniae Imipenem (1 μg/mL)” value in the assay with K. pneumoniae was less than 256 µg/mL. For the same compound, the “Rescue concentration, P. aeruginosa Imipenem (1 μg/mL)” value in the assay with P. aeruginosa was 128 µg/mL.
On to `O=[N+]([O-])c1ccc(C(O)c2c[nH]c3ncccc23)cc1` (stereo not drawn) [Compound 4NO2-7aza-OH, (4-nitrophenyl)(1H-pyrrolo[2,3-b]pyridin-3-yl)methanol], for which the MIC in assay [1], in assay [2], in assay [3], in assay [4] and in assay [5] was less than 1020 µg/mL each time. For the same compound, the “Rescue concentration … (2 μg/mL)” value with MRSA was 32 µg/mL. In addition, the “Rescue concentration, K. pneumoniae Ciprofloxacin (1 μg/mL)” value in the assay with K. pneumoniae was less than 256 µg/mL. For the same compound, in the assay on K. pneumoniae, the “Rescue concentration, K. pneumoniae Imipenem (1 μg/mL)” value was less than 256 µg/mL. For the same compound, the “Rescue concentration, P. aeruginosa Imipenem (1 μg/mL)” value in the assay with P. aeruginosa is less than 256 µg/mL.

The term MIC denotes the smallest concentration in the dilution series that meets the test's criterion for growth inhibition.
